Reference: patent US20020026053A1, “Novel 3-(substituted) -2- indolinones compounds and use thereof as inhibitors of protein kinase activity” (priority 1997, published 2002)

What was measured:
FLK-1 receptor = experiment: FLK-1 Assay (cellular/catalytic ELISA, VEGF-stimulated phosphotyrosine); format: cell-based; set-up: concentration or dose not given beside the values; settings: protocol P.110
Summary of the method: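 NIH3T3 C7#3 cells engineered to express Flk-1 were serum-starved overnight (0.1% FBS), then exposed to compound for 2 h at 37 °C (final dilution 1:200, 0.5% DMSO) before VEGF stimulation. Lysates captured on anti-FLK-1 antiserum plates; phosphotyrosine detected by UB40 antibody/POD-ABTS ELISA versus untreated controls.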

PDGF-R = PDGF-R Assay (cellular ELISA, U1242 cells); format: cell-based; set-up: concentration or dose not given beside the values; settings: protocol P.119
Summary of the method: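 U1242 cells seeded in 0.5% serum, serum-starved, then exposed to compound for 2 hr at 37°C before 5–10 min ligand stimulation and lysis in HNTG. Lysate captured on receptor-antibody-coated plates; phosphotyrosine detected with polyclonal anti-pTyr, goat anti-rabbit IgG and ABTS/H2O2, A410 (ref 630 nm), versus untreated cells.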

SMILES | Flk Kinase % Inhibition (P.110) (FLK-1 receptor) | PDGF Kinase % Inhibition (P.119) (PDGF-R)
Cc1ccc(C)c(C=C2C(=O)Nc3c(Br)cc(Br)c(C)c32)c1 [10737/H07] | 15.5% | −17.7%
Cc1c(Br)cc(Br)c2c1C(=Cc1cccc(Oc3cccc(C(F)(F)F)c3)c1)C(=O)N2 [10737/H11] | 14.5% | −16.5%
Cc1c(Br)cc(Br)c2c1C(=Cc1cccc(Oc3ccc(C(C)(C)C)cc3)c1)C(=O)N2 [10737/H10] | 10.5% | −12.9%
Cc1c(Br)cc(Br)c2c1C(=Cc1ccc3ccccc3c1)C(=O)N2 [10737/H08] | 10.0% | −26.9%
Cc1c(Br)cc(Br)c2c1C(=Cc1ccc(Oc3ccccc3)cc1)C(=O)N2 [10737/H09] | 5.5% | −11.7%
